Test results reported in ChEMBL document CHEMBL1201862, “PubChem BioAssay data set” (2004).
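Interpolation was linear, between the two tested concentrations surrounding the appropriate level; five concentrations were tested over 48 hours in 96-well plates. GI50 is the concentration that inhibits growth by half.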 Calls of active or inactive are those of the source. No stated cut-off is given here; in the data, active = GI50 up to about 1.1 µM and inactive = higher.

Tests used:
Assay in all cases: DTP human tumour cell line panel, 48 h
[1] = test system: HCT-15
[2] = test system: UACC-62
[3] = test system: SK-MEL-5
[4] = test system: SF-539
[5] = test system: U-251
[6] = test system: SNB-75
[7] = test system: RXF 393
[8] = test system: HOP-18
[9] = test system: MOLT-4
[10] = test system: NCI-H226
[11] = test system: K562
[12] = test system: OVCAR-8
[13] = test system: DLD-1
[14] = test system: ACHN
[15] = test system: NCI-H460
[16] = test system: LXFL 529
[17] = test system: M14
[18] = test system: SNB-78
[19] = test system: SK-MEL-2
[20] = test system: XF498
[21] = test system: OVCAR-3
[22] = test system: Malme-3M
[23] = test system: KM-20L2
[24] = test system: SF-295
[25] = test system: SK-MEL-28
[26] = test system: SF-268
[27] = test system: HOP-62
[28] = test system: SW-620
[29] = test system: KM12
[30] = test system: 786-0
[31] = test system: OVCAR-5
[32] = test system: RPMI-8226
[33] = test system: IGROV-1
[34] = test system: A549
[35] = test system: HT-29
[36] = test system: TK-10
[37] = test system: CAKI-1
[38] = test system: CCRF-CEM
[39] = test system: HOP-92
[40] = test system: LOX IMVI
[41] = test system: UO-31
[42] = test system: EKVX
[43] = test system: NCI-H522
[44] = test system: DMS-114
[45] = test system: UACC-257
[46] = test system: SK-OV-3
[47] = test system: COLO 205
[48] = test system: OVCAR-4
[49] = test system: HCT-116
[50] = test system: SNB-19
[51] = test system: M19-MEL
[52] = test system: HCC 2998
[53] = test system: DMS-273
[54] = test system: NCI-H23
[55] = test system: SN12C
[56] = test system: A498
[57] = test system: SR
[58] = test system: HL-60

CCOC(=O)/C=C(/CN1C(=O)c2ccccc2C1=O)c1ccccc1
GI50 [1]: > 100 µM
GI50 [2]: > 100 µM (inactive)
GI50 [3]: > 100 µM (inactive)
GI50 [4]: > 100 µM (inactive)
GI50 [5]: > 100 µM (inactive)
GI50 [6]: > 100 µM (inactive)
GI50 [7]: > 100 µM (inactive)
GI50 [8]: > 100 µM (inactive)
GI50 [9]: > 100 µM (inactive)
GI50 [10]: > 100 µM (inactive)
GI50 [11]: > 100 µM (inactive)
GI50 [12]: > 100 µM (inactive)
GI50 [13]: > 100 µM (inactive)
GI50 [14]: > 100 µM (inactive)
GI50 [15]: > 100 µM (inactive)
GI50 [16]: > 100 µM (inactive)
GI50 [17]: > 100 µM (inactive)
GI50 [18]: 88.9 µM (inactive)
GI50 [19]: > 100 µM (inactive)
GI50 [20]: > 100 µM (inactive)
GI50 [21]: > 100 µM (inactive)
GI50 [22]: > 100 µM (inactive)
GI50 [23]: > 100 µM (inactive)
GI50 [24]: > 100 µM (inactive)
GI50 [25]: > 100 µM (inactive)
GI50 [26]: > 100 µM (inactive)
GI50 [27]: > 100 µM (inactive)
GI50 [28]: > 100 µM (inactive)
GI50 [29]: > 100 µM (inactive)
GI50 [30]: > 100 µM (inactive)
GI50 [31]: > 100 µM (inactive)
GI50 [32]: > 100 µM (inactive)
GI50 [33]: > 100 µM (inactive)
GI50 [34]: > 100 µM (inactive)
GI50 [35]: > 100 µM (inactive)
GI50 [36]: > 100 µM (inactive)
GI50 [37]: > 100 µM (inactive)
GI50 [38]: > 100 µM (inactive)
GI50 [39]: > 100 µM (inactive)
GI50 [40]: > 100 µM (inactive)
GI50 [41]: > 100 µM (inactive)
GI50 [42]: > 100 µM (inactive)
GI50 [43]: > 100 µM (inactive)
GI50 [44]: > 100 µM (inactive)
GI50 [45]: > 100 µM (inactive)
GI50 [46]: > 100 µM (inactive)
GI50 [47]: > 100 µM (inactive)
GI50 [48]: > 100 µM (inactive)
GI50 [49]: > 100 µM (inactive)
GI50 [50]: > 100 µM (inactive)
GI50 [51]: > 100 µM (inactive)
GI50 [52]: > 100 µM (inactive)
GI50 [53]: > 100 µM (inactive)
GI50 [54]: > 100 µM (inactive)
GI50 [55]: > 100 µM (inactive)
GI50 [56]: > 100 µM (inactive)

COc1ccc(C(=O)C(CC2C(=O)NC(=O)NC2=O)c2ccc(OC)cc2)cc1 (configuration not stated)
GI50 [1]: > 100 µM
GI50 [2]: > 100 µM (inactive)
GI50 [3]: > 100 µM (inactive)
GI50 [4]: > 100 µM (inactive)
GI50 [5]: > 100 µM (inactive)
GI50 [6]: > 100 µM (inactive)
GI50 [7]: > 100 µM (inactive)
GI50 [8]: > 100 µM (inactive)
GI50 [9]: > 100 µM (inactive)
GI50 [10]: > 100 µM (inactive)
GI50 [11]: > 100 µM (inactive)
GI50 [12]: > 100 µM (inactive)
GI50 [13]: > 100 µM (inactive)
GI50 [14]: > 100 µM (inactive)
GI50 [15]: > 100 µM (inactive)
GI50 [16]: > 100 µM (inactive)
GI50 [17]: > 100 µM (inactive)
GI50 [18]: > 100 µM (inactive)
GI50 [19]: > 100 µM (inactive)
GI50 [20]: > 100 µM (inactive)
GI50 [21]: > 100 µM (inactive)
GI50 [22]: > 100 µM (inactive)
GI50 [23]: > 100 µM (inactive)
GI50 [24]: > 100 µM (inactive)
GI50 [25]: > 100 µM (inactive)
GI50 [26]: > 100 µM (inactive)
GI50 [27]: > 100 µM (inactive)
GI50 [28]: > 100 µM (inactive)
GI50 [57]: > 100 µM (inactive)
GI50 [29]: > 100 µM (inactive)
GI50 [30]: > 100 µM (inactive)
GI50 [31]: > 100 µM (inactive)
GI50 [33]: > 100 µM (inactive)
GI50 [34]: > 100 µM (inactive)
GI50 [35]: > 100 µM (inactive)
GI50 [36]: > 100 µM (inactive)
GI50 [37]: > 100 µM (inactive)
GI50 [38]: > 100 µM (inactive)
GI50 [40]: > 100 µM (inactive)
GI50 [41]: > 100 µM (inactive)
GI50 [42]: > 100 µM (inactive)
GI50 [43]: > 100 µM (inactive)
GI50 [44]: > 100 µM (inactive)
GI50 [45]: > 100 µM (inactive)
GI50 [46]: > 100 µM (inactive)
GI50 [47]: > 100 µM (inactive)
GI50 [48]: > 100 µM (inactive)
GI50 [58]: > 100 µM (inactive)
GI50 [49]: > 100 µM (inactive)
GI50 [50]: > 100 µM (inactive)
GI50 [51]: > 100 µM (inactive)
GI50 [52]: > 100 µM (inactive)
GI50 [53]: > 100 µM (inactive)
GI50 [54]: > 100 µM (inactive)
GI50 [55]: > 100 µM (inactive)
GI50 [56]: > 100 µM (inactive)

CCOC(=O)C1C(c2ccc(Br)cc2)N(Cc2ccccc2)C(c2ccc(Br)cc2)C(C(=O)OC)S1(=O)=O (configuration not stated)
GI50 [1]: > 100 µM
GI50 [2]: > 100 µM (inactive)
GI50 [6]: 21.3 µM (inactive)
GI50 [7]: 33.6 µM (inactive)
GI50 [8]: 21.9 µM (inactive)
GI50 [9]: > 100 µM (inactive)
GI50 [10]: 46.8 µM (inactive)
GI50 [11]: 87.7 µM (inactive)
GI50 [12]: 24.8 µM (inactive)
GI50 [13]: > 100 µM (inactive)
GI50 [14]: 93.5 µM (inactive)
GI50 [15]: > 100 µM (inactive)
GI50 [16]: > 100 µM (inactive)
GI50 [17]: 83.4 µM (inactive)
GI50 [18]: > 100 µM (inactive)
GI50 [19]: > 100 µM (inactive)
GI50 [20]: > 100 µM (inactive)
GI50 [21]: > 100 µM (inactive)
GI50 [22]: > 100 µM (inactive)
GI50 [23]: > 100 µM (inactive)
GI50 [24]: 35.4 µM (inactive)
GI50 [25]: 53.3 µM (inactive)
GI50 [26]: 39.6 µM (inactive)
GI50 [27]: > 100 µM (inactive)
GI50 [28]: > 100 µM (inactive)
GI50 [57]: 34.4 µM (inactive)
GI50 [29]: > 100 µM (inactive)
GI50 [30]: 32.3 µM (inactive)
GI50 [31]: > 100 µM (inactive)
GI50 [32]: 32.7 µM (inactive)
GI50 [33]: > 100 µM (inactive)
GI50 [34]: 76.9 µM (inactive)
GI50 [35]: 66.8 µM (inactive)
GI50 [36]: > 100 µM (inactive)
GI50 [37]: 77.1 µM (inactive)
GI50 [38]: 40.4 µM (inactive)
GI50 [40]: > 100 µM (inactive)
GI50 [41]: 49.7 µM (inactive)
GI50 [42]: > 100 µM (inactive)
GI50 [43]: 50.6 µM (inactive)
GI50 [44]: 66.4 µM (inactive)
GI50 [45]: 24.9 µM (inactive)
GI50 [46]: > 100 µM (inactive)
GI50 [47]: > 100 µM (inactive)
GI50 [48]: 29.1 µM (inactive)
GI50 [58]: > 100 µM (inactive)
GI50 [49]: 25.2 µM (inactive)
GI50 [50]: 27.5 µM (inactive)
GI50 [51]: 74.6 µM (inactive)
GI50 [52]: > 100 µM (inactive)
GI50 [53]: 74.1 µM (inactive)
GI50 [54]: > 100 µM (inactive)
GI50 [55]: > 100 µM (inactive)

CN(C)/N=N/c1cccc(C(N)=O)c1
GI50 [1]: > 100 µM
GI50 [3]: > 100 µM (inactive)
GI50 [4]: > 100 µM (inactive)
GI50 [5]: > 100 µM (inactive)
GI50 [6]: 69.3 µM (inactive)
GI50 [7]: > 100 µM (inactive)
GI50 [8]: > 100 µM (inactive)
GI50 [9]: > 100 µM (inactive)
GI50 [10]: > 100 µM (inactive)
GI50 [11]: > 100 µM (inactive)
GI50 [12]: > 100 µM (inactive)
GI50 [13]: > 100 µM (inactive)
GI50 [14]: > 100 µM (inactive)
GI50 [15]: > 100 µM (inactive)
GI50 [16]: > 100 µM (inactive)
GI50 [17]: > 100 µM (inactive)
GI50 [18]: > 100 µM (inactive)
GI50 [19]: > 100 µM (inactive)
GI50 [20]: > 100 µM (inactive)
GI50 [21]: > 100 µM (inactive)
GI50 [22]: > 100 µM (inactive)
GI50 [23]: > 100 µM (inactive)
GI50 [24]: > 100 µM (inactive)
GI50 [25]: > 100 µM (inactive)
GI50 [26]: > 100 µM (inactive)
GI50 [28]: > 100 µM (inactive)
GI50 [57]: > 100 µM (inactive)
GI50 [29]: > 100 µM (inactive)
GI50 [30]: > 100 µM (inactive)
GI50 [32]: > 100 µM (inactive)
GI50 [33]: > 100 µM (inactive)
GI50 [34]: > 100 µM (inactive)
GI50 [35]: > 100 µM (inactive)
GI50 [36]: > 100 µM (inactive)
GI50 [37]: > 100 µM (inactive)
GI50 [38]: > 100 µM (inactive)
GI50 [39]: > 100 µM (inactive)
GI50 [41]: > 100 µM (inactive)
GI50 [42]: > 100 µM (inactive)
GI50 [44]: > 100 µM (inactive)
GI50 [46]: > 100 µM (inactive)
GI50 [47]: > 100 µM (inactive)
GI50 [48]: > 100 µM (inactive)
GI50 [58]: > 100 µM (inactive)
GI50 [49]: > 100 µM (inactive)
GI50 [50]: > 100 µM (inactive)
GI50 [51]: > 100 µM (inactive)
GI50 [52]: > 100 µM (inactive)
GI50 [53]: > 100 µM (inactive)
GI50 [54]: > 100 µM (inactive)
GI50 [55]: > 100 µM (inactive)
GI50 [56]: > 100 µM (inactive)
